Data taken from paper PMC12216609, “Inhibitors of eIF1A-ribosome interaction unveil uORF-dependent regulation of translation initiation and antitumor and antiviral effects” (The EMBO Journal, 2025).
“And” between values parts separate entries of the source, which are not always exact repeats. Identical values can stand only once. Like-named read-outs stand apart in the source and are kept apart here.

Legend:
eIF1A without NTT = target: T1, eIF1A without NTT (Homo sapiens, UniProt P47813); assay: Fluorescence binding assay with NTT-truncated eIF1A; details: for fluorescence ratio, eIF1A Δ NTT: background-corrected, relative to DMSO or lowest 1Ai concentration, replicate columns
T1 construct: His-bdSUMO (cleaved yes); made in house; host or cells: E. coli (BL-21)

eIF1A without CTT = target: T2, eIF1A without CTT (Homo sapiens, UniProt P47813); format: binding; details: for fluorescence ratio, eIF1A Δ CTT: background-corrected, relative to DMSO or lowest 1Ai concentration, replicate columns
T2 construct: His-bdSUMO (cleaved yes); made in house; host or cells: E. coli (BL-21)

[1] = system: CUG/GUG vs AUG start codon luciferase reporters in HEK293T cells; assay: Near-cognate AUG starting codon fidelity reporter assay (GUG, CUG vs AUG); format: cell-based; details: for CUG vs AUG (%): CUG start codon reporter relative to AUG reporter (AUG = 100); for CUG vs AUG (%) / GUG vs AUG (%): single-experiment calculation; for GUG vs AUG (%): GUG start codon reporter relative to AUG reporter (AUG = 100); for average CUG and GUG / average CUG and GUG relative to DMSO / CUG Average / GUG Average: NUG experiment; for CUG Average: CUG vs AUG reporter; for GUG Average: GUG vs AUG reporter; for NUG (Final data, Fig. 1E): average CUG and GUG relative to DMSO, 20 µM overnight; for GUG vs AUG data (%): individual repeat; for GUG vs AUG (%) Average: summary average of repeats, DMSO control average […]
[2] = system: IRF7 5'UTR firefly luciferase reporter in HEK293T cells; details: for Reference vs IRF7 (Final data, Fig. 1E): 1/Result, relative to DMSO; for LONG (summary - All), normalized to DMSO / SHORT (summary - All), normalized to DMSO: individual replicates, outliers excluded, DMSO = 1; for average ( long vs short ratio): summary - All; for Long 5'UTR reporter luciferase activity, normalized to DMSO (=1), single replicates: left data block (Long), source data of Fig 1C;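 on all read-outs here: luciferase signal corrected by a co-transfected GFP reporter for transfection efficiency, read after overnight compound exposure, with Long and Short reporters differing in 5'UTR length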
Protocol: For the effect on ribosomal scanning, we used two firefly luciferase reporter genes that differ in their 5'UTR length (Fig. 1C). […] Cells were transfected with these reporters along with a GFP reporter gene used to normalize transfection efficiency. After an overnight 1Ai or DMSO (vehicle control) exposure, luciferase and GFP expression were measured, and normalized activity was determined.
For the reference vs IRF7 5'UTR luciferase reporter assay, HEK239T cells in a 12-well plate were transfected with the previously described IRF7 5'UTR or reference firefly luciferase reported genes (Sehrawat et al, [2019]) (100 ng/well) together with GFP (20 ng/well) that served as an internal control by CaCl2 transfection. After 6 h, half of the growth medium was replaced with a medium containing the different compounds, reaching a final concentration of 20 µM. Twenty-four hours after transfection, transfection efficiency was evaluated using GFP fluorescence intensity (Cytation 5, ex/em: 470/525). Cells were harvested in 50 µL Reported lysis buffer (RLB) and put on a shaker for 10 min. From each well 5 µL were taken in duplicates and tested by luminometer.

NSP1 = NSP1 (Severe acute respiratory syndrome coronavirus 2, UniProt P0DTD1)
[3] = compound at 10uM (summary head)
[4] = compound at 20uM (summary head)
[5] = raw data calculation of one experiment, GFP normalized, AUG set to 100, compound marked (20)

T2 sequence (P47813 1-114 limits assumed): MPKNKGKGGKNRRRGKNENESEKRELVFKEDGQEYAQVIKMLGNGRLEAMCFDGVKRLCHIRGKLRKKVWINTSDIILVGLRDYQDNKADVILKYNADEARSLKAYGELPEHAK
T1 sequence (P47813 31-144 limits assumed): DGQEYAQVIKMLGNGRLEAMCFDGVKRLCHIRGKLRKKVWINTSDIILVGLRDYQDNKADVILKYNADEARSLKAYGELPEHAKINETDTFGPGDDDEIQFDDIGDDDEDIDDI

COc1cccc(Nc2nc(-c3ccc(NC(C)=O)cc3)c(C)s2)c1 [1Ai-1869]
fluorescence ratio, eIF1A Δ NTT (eIF1A without NTT; 1Ai conc. 0.25 uM): 1
fluorescence ratio, eIF1A Δ NTT (eIF1A without NTT; 1Ai conc. 0.5 uM): 0.9867
fluorescence ratio, eIF1A Δ NTT (eIF1A without NTT; 1Ai conc. 1 uM): 1.085
fluorescence ratio, eIF1A Δ NTT (eIF1A without NTT; 1Ai conc. 2 uM): 0.9841
fluorescence ratio, eIF1A Δ NTT (eIF1A without NTT; 1Ai conc. 4 uM): 0.9947
fluorescence ratio, eIF1A Δ NTT (eIF1A without NTT; 1Ai conc. 8 uM): 0.9125
fluorescence ratio, eIF1A Δ NTT (eIF1A without NTT; 1Ai conc. 16 uM): 0.8674
fluorescence ratio, eIF1A Δ NTT (eIF1A without NTT; 1Ai conc. 32 uM): 0.7984
fluorescence ratio, eIF1A Δ NTT (eIF1A without NTT; 1Ai conc. 64 uM): 0.7082
fluorescence ratio, eIF1A Δ NTT (eIF1A without NTT; 1Ai conc. 256 uM): 0.6737
IC50 (eIF1A without NTT; eIF1A Δ NTT, from the titration data, read-out: IC50 (eIF1A Δ NTT titration block)): 21.3 µM
IC50 (eIF1A without NTT; summary table, fluorescence binding assay, read-out: IC50 concentration (µM), NTT truncation): 21.3 µM
fluorescence ratio, eIF1A Δ CTT (eIF1A without CTT; 1Ai conc. 0.25 uM): 0.6232 and 0.681
fluorescence ratio, eIF1A Δ CTT (eIF1A without CTT; 1Ai conc. 0.5 uM): 0.6378 and 0.5984
fluorescence ratio, eIF1A Δ CTT (eIF1A without CTT; 1Ai conc. 1 uM): 0.6117 and 0.6127
fluorescence ratio, eIF1A Δ CTT (eIF1A without CTT; 1Ai conc. 2 uM): 0.4666 and 0.4698
fluorescence ratio, eIF1A Δ CTT (eIF1A without CTT; 1Ai conc. 4 uM): 0.4763 and 0.4603
fluorescence ratio, eIF1A Δ CTT (eIF1A without CTT; 1Ai conc. 8 uM): 0.4568 and 0.3937
fluorescence ratio, eIF1A Δ CTT (eIF1A without CTT; 1Ai conc. 16 uM): 0.3246 and 0.3079
fluorescence ratio, eIF1A Δ CTT (eIF1A without CTT; 1Ai conc. 32 uM): 0.1925 and 0.219
fluorescence ratio, eIF1A Δ CTT (eIF1A without CTT; 1Ai conc. 64 uM): 0.1778 and 0.2
fluorescence ratio, eIF1A Δ CTT (eIF1A without CTT; 1Ai conc. 256 uM): 0.2104 and 0.2095
IC50 (eIF1A without CTT; eIF1A Δ CTT, from the titration data, read-out: IC50 (eIF1A Δ CTT titration block)): 5.75 µM
IC50 (eIF1A without CTT; summary table, fluorescence binding assay, read-out: IC50 concentration (µM), CTT truncation): 5.7 µM
CUG vs AUG (%) ([1]; compound at 5uM (summary head)): 5.139%
GUG vs AUG (%) ([1]; compound at 5uM (summary head)): 1.3841%
average CUG and GUG [1]: 3.262
average CUG and GUG relative to DMSO [1]: 0.7232
CUG Average [1]: 5.139
GUG Average [1]: 1.3841
NUG (Final data, Fig. 1E) [1]: 0.723
GUG vs AUG data (%) ([1]; compound at 5uM): 2.01% and 1.38%
GUG vs AUG (%) Average ([1]; compound at 5uM): 1.70%
Reference vs IRF7 (Final data, Fig. 1E) ([2]; 20 µM): 1.329
LONG (summary - All), normalized to DMSO ([2]; Long reporter, 5 µM): 0.51 and 0.25 and 0.61
SHORT (summary - All), normalized to DMSO ([2]; Short reporter, 5 µM): 0.54 and 0.69 and 0.59
Short: Normalized to average DMSO ([2]; data section, Short reporter, GFP-corrected, 5 µM, per experiment, includes values excluded as outliers): 0.5397 and 0.69 and 0.5937
average ( long vs short ratio) ([2]; 5 µM): 0.752
GFP reporter ratio nsp1/gfp, avg (NSP1): 0.4109
GFP reporter ratio nsp1/gfp, rep 1 (NSP1): 0.4212
GFP reporter ratio nsp1/gfp, rep 2 (NSP1): 0.4006
ratio (nsp1/gfp) (NSP1): 0.421 and 0.401 and 0.735

COc1ccc2oc(C(=O)OC(C)C(=O)Nc3sccc3C(N)=O)c(C)c2c1 (stereo not shown) [1Ai-3044]
CUG vs AUG (%) [1, 3]: 8.177%
GUG vs AUG (%) [1, 3]: 1.952%
average CUG and GUG [1]: 5.9112
average CUG and GUG relative to DMSO [1]: 1.3106
CUG Average [1]: 9.682
GUG Average [1]: 2.141
NUG (Final data, Fig. 1E) [1]: 1.311
GUG vs AUG data (%) ([1]; compound at 10uM): 2.24% and 1.90% and 2.01% and 2.41%
GUG vs AUG (%) Average ([1]; compound at 10uM): 2.14%
Reference vs IRF7 (Final data, Fig. 1E) ([2]; 20 µM): 0.527
LONG (summary - All), normalized to DMSO ([2]; Long reporter, 10 µM): 0.55 and 1.64 and 1.20 and 0.82 and 1.11
SHORT (summary - All), normalized to DMSO ([2]; Short reporter, 10 µM): 0.72 and 0.67 and 0.70 and 0.63
Long 5'UTR reporter luciferase activity, normalized to DMSO (=1), single replicates ([2]; compound at 10 µM): 0.5511 and 1.639 and 1.204 and 0.8163 and 1.106
average ( long vs short ratio) ([2]; 10 µM): 1.568
GFP reporter ratio nsp1/gfp, avg (NSP1): 0.4548
GFP reporter ratio nsp1/gfp, rep 1 (NSP1): 0.4548
gfp signal, mean of duplicate wells (NSP1): 2086.5
nsp1 signal, mean of duplicate wells (NSP1): 949
ratio (nsp1/gfp) (NSP1): 0.455

O=C(C=Cc1ccc(Cl)s1)Nc1cccc2ncccc12 [1Ai-4860]
CUG vs AUG (%) [1, 4]: 3.6331%
GUG vs AUG (%) [1, 4]: 0.9953%
average CUG and GUG [1]: 2.314
average CUG and GUG relative to DMSO [1]: 0.5131
CUG Average [1]: 3.6331
GUG Average [1]: 0.9953
NUG (Final data, Fig. 1E) [1]: 0.513
GUG vs AUG data (%) ([1]; compound at 20uM): 1.48% and 1.00%
GUG vs AUG (%) Average ([1]; compound at 20uM): 1.24%
Reference vs IRF7 (Final data, Fig. 1E) ([2]; 20 µM): 1.848
LONG (summary - All), normalized to DMSO ([2]; Long reporter, 20 µM): 0.47 and 0.69 and 0.42 and 0.61
SHORT (summary - All), normalized to DMSO ([2]; Short reporter, 20 µM): 0.84 and 1.62 and 0.77
Long: Normalized to average DMSO ([2]; data section, Long reporter, GFP-corrected, 20 µM, per experiment, includes values excluded as outliers): 0.471 and 0.6925 and 0.4245 and 0.6135
average ( long vs short ratio) ([2]; 20 µM): 0.541
GFP reporter ratio nsp1/gfp, avg (NSP1): 0.4044
GFP reporter ratio nsp1/gfp, rep 1 (NSP1): 0.428
GFP reporter ratio nsp1/gfp, rep 2 (NSP1): 0.3807
gfp signal, mean of duplicate wells (NSP1): 2781.5 and 4263
nsp1 signal, mean of duplicate wells (NSP1): 1059 and 1824.5
ratio (nsp1/gfp) (NSP1): 0.381 and 0.428

Oc1cc(Cl)ccc1Oc1ccc(Cl)cc1Cl [1Ai-6248]
CUG vs AUG (%) ([1]; compound at 5uM (summary head)): 9.031% and 6.716%
GUG vs AUG (%) ([1]; compound at 5uM (summary head)): 1.808% and 1.909%
average CUG and GUG [1]: 4.51
average CUG and GUG relative to DMSO [1]: 1
CUG Average [1]: 7.441
GUG Average [1]: 1.579
NUG (Final data, Fig. 1E) [1]: 1.000
GUG vs AUG data (%) ([1]; compound at 5uM): 1.28% and 2.36% and 1.32% and 1.37%
GUG vs AUG (%) Average ([1]; compound at 5uM): 1.58%
Reference vs IRF7 (Final data, Fig. 1E) ([2]; 20 µM): 2.307
LONG (summary - All), normalized to DMSO ([2]; Long reporter, 5 µM): 0.82 and 0.51 and 0.33 and 0.43
SHORT (summary - All), normalized to DMSO ([2]; Short reporter, 5 µM): 0.71 and 0.90 and 0.20
average ( long vs short ratio) ([2]; 5 µM): 0.861
GFP reporter ratio nsp1/gfp, avg (NSP1): 0.4361
GFP reporter ratio nsp1/gfp, rep 1 (NSP1): 0.4445
GFP reporter ratio nsp1/gfp, rep 2 (NSP1): 0.4277
gfp signal, mean of duplicate wells (NSP1): 2505 and 4211.5
nsp1 signal, mean of duplicate wells (NSP1): 1071.5 and 1872
ratio (nsp1/gfp) (NSP1): 0.428 and 0.444

Cn1c(=O)c2ccccc2n2c(CNC(c3ccc4c(c3)CCC4)c3cccs3)nnc12 (stereo not shown) [1Ai-7688]
CUG vs AUG (%) [1, 4]: 6.15%
GUG vs AUG (%) [1, 4]: 1.391%
average CUG and GUG [1]: 3.434
average CUG and GUG relative to DMSO [1]: 0.7613
CUG Average [1]: 5.347
GUG Average [1]: 1.52
NUG (Final data, Fig. 1E) [1]: 0.761
GUG vs AUG data (%) ([1]; compound at 20uM): 1.96% and 1.30% and 1.49% and 1.33%
GUG vs AUG (%) Average ([1]; compound at 20uM): 1.52%
calculation: CUG (AUG = 100) [1, 5]: 4.522
calculation: GUG (AUG = 100) [1, 5]: 1.611
Reference vs IRF7 (Final data, Fig. 1E) ([2]; 20 µM): 1.509
LONG (summary - All), normalized to DMSO ([2]; Long reporter, 20 µM): 0.23 and 0.0442 and 0.78 and 0.63 and 1.12 and 0.61
SHORT (summary - All), normalized to DMSO ([2]; Short reporter, 20 µM): 0.19 and 0.05 and 1.25 and 0.79 and 1.33 and 1.55
Long 5'UTR reporter luciferase activity, normalized to DMSO (=1), single replicates ([2]; compound at 20 µM): 0.2324 and 0.04416 and 0.7839 and 0.6346 and 1.115 and 0.6102
average ( long vs short ratio) ([2]; 20 µM): 0.663
GFP reporter ratio nsp1/gfp, avg (NSP1): 0.4413
GFP reporter ratio nsp1/gfp, rep 1 (NSP1): 0.4413
gfp signal, mean of duplicate wells (NSP1): 1907
nsp1 signal, mean of duplicate wells (NSP1): 841.5
ratio (nsp1/gfp) (NSP1): 0.441
